Experimental data taken from patent US20250313563A1, “GLYCOGEN SYNTHASE KINASE 3 INHIBITORS AND USES THEREOF” (The Broad Institute, Inc., priority 2022, published 2025).
Where two headings read alike, the source gives them in different places.

Assays:
[1] = molecular target: GSK3b (GST-full length GSK3b) (Homo sapiens (Human), UniProt P49841); assay: GSK3b TR-FRET kinase assay; assay type: biochemical; details: 1 nM GSK3b, 2 μM ATP, 30 minute preincubation, Table 16, read-out: GSK3-B TR-FRET BIOCHEMICAL (TR-FRET)
In short: (§1)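 Readout: anti-pSer641 Tb antibody/streptavidin-d2 signal after 60 min, expressed as 665/615 ratio and fitted versus log concentration for IC50. Enzyme: 1 nM GST-GSK3 (α or β), compound-preincubated 30 min. Conditions: pH 7.5 Tris buffer with MgCl2, DTT, BSA; ATP at 4 or 2 μM, or 1 mM; 100 min.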

[2] = molecular target: GSK3α (GST-full length GSK3α) (Homo sapiens (Human), UniProt P49840); assay: GSK3α TR-FRET kinase assay; assay type: biochemical; details: 1 nM GSK3α, 4 μM ATP, 30 minute preincubation, Table 16, read-out: GSK3-A TR-FRET BIOCHEMICAL (TR-FRET)
In short: as §1

Chain of GSK3b (GST-full length GSK3b) (P49841 whole entry): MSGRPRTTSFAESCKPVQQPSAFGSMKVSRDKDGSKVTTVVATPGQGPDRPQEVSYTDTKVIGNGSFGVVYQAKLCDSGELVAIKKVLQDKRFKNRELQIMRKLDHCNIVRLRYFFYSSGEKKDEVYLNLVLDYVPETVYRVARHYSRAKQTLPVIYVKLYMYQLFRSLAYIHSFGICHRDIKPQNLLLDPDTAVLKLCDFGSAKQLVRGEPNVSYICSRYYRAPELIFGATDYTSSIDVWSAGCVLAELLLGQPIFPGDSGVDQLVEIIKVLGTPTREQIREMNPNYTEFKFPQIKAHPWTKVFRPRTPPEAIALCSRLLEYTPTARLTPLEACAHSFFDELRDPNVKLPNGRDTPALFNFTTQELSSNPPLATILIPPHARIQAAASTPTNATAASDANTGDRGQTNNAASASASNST
Chain of GSK3α (GST-full length GSK3α) (P49840 whole entry): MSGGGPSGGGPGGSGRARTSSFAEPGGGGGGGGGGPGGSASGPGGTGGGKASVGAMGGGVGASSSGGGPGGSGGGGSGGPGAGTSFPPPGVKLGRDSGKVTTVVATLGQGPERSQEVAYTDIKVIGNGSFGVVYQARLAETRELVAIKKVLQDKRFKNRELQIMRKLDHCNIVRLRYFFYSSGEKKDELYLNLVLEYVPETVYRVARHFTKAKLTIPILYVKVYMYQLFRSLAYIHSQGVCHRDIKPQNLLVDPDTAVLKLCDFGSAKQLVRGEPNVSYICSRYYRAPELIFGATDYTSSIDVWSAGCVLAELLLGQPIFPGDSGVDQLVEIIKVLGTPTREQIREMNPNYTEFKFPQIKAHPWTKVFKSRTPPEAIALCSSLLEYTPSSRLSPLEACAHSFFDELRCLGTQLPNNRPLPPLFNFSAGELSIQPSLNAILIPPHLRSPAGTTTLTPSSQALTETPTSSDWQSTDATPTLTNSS

| SMILES | IC50 ([1]; IC50) [nM] | IC50 ([2]; IC50) [nM] | IC50 [1] [nM] | IC50 [2] [nM] |
| --- | --- | --- | --- | --- |
| CC[C@@]1(c2cccc(-c3ccnc(C)c3)c2)C2=C(CC(C)(C)C2=O)Nc2n[nH]cc21 [Compound 950282] | 100 to 1000 | ≤ 100 |  |  |
| CCC1(c2cccc(Oc3ncccn3)c2)C2=C(CC(C)(C)NC2=O)Nc2n[nH]c(Cl)c21 (stereo not drawn) [Compound 950318] | ≤ 100 | ≤ 100 |  |  |
| CCC1(c2cccc(-c3ccncc3F)c2)C2=C(CC(C)(C)NC2=O)Nc2n[nH]c(C(F)F)c21 (stereo not drawn) [Compound 950320] | ≤ 100 | ≤ 100 |  |  |
| CCC1(c2cccc(Oc3ncccn3)c2)C2=C(CC(C)(C)NC2=O)Nc2n[nH]c(C(F)(F)F)c21 (stereo not drawn) [Compound 950323] | ≤ 100 | ≤ 100 |  |  |
| Cc1nccc([C@H]2CC[C@]3(CC2)C2=C(CC(C)(C)CC2=O)Nc2n[nH]cc23)c1C [Compound 950477] |  |  | 100 to 1000 | 100 to 1000 |
| Cc1nccc([C@H]2CC[C@@]3(CC2)C2=C(CC(C)(C)CC2=O)Nc2n[nH]cc23)c1C [Compound 950478] |  |  | ≤ 100 | ≤ 100 |
| CCC1(c2cccc(N(C)c3ncccn3)c2)C2=C(CC(C)(C)NC2=O)Nc2n[nH]c(C(F)F)c21 (stereo not drawn) [Compound 950484] | ≤ 100 | ≤ 100 |  |  |
| CCC1(c2cccc(C(F)(F)F)c2)C2=C(CCN(c3nn(C)cc3C)C2=O)Nc2n[nH]cc21 (stereo not drawn) [Compound 950486] | 1000 to 5000 | 100 to 1000 |  |  |
| CC[C@]1(c2cccc(C(C)C)c2)C2=C(CC(C)(C)NC2=O)Nc2n[nH]c(C(F)(F)F)c21 [Compound 950493] | 100 to 1000 | 100 to 1000 |  |  |
| CC[C@]1(c2cccc(-c3cnn(C)c3F)c2)C2=C(CC(C)(C)NC2=O)Nc2n[nH]cc21 [Compound 950562] | 100 to 1000 | ≤ 100 |  |  |
| CC[C@]1(c2cccc(-c3cnn4c3CC(C)(C)CC4)c2)C2=C(CC(C)(C)NC2=O)Nc2n[nH]cc21 [Compound 950564] | 100 to 1000 | ≤ 100 |  |  |
| CCC1(c2cccc(Oc3ncccn3)c2)C2=C(CC(C)(C)NC2=O)Nc2n[nH]c(F)c21 (stereo not drawn) [Compound 950615] | 100 to 1000 | ≤ 100 |  |  |
| CCC1(c2cccc(-c3cn(C)nc3C)c2)C2=C(CC3(CCS(=O)(=O)CC3)NC2=O)Nc2n[nH]cc21 (stereo not drawn) [Compound 950813] | 100 to 1000 | ≤ 100 |  |  |
| CC1(C)CC(=O)C2=C(Nc3n[nH]cc3C23CCN(S(=O)(=O)C2CC2)CC3)C1F (stereo not drawn) [Compound 950814] |  |  | ≤ 100 | ≤ 100 |

Next, values leading:

| IC50 ([1]; IC50) [nM] | IC50 ([2]; IC50) [nM] | IC50 [1] [nM] | IC50 [2] [nM] | SMILES |
| --- | --- | --- | --- | --- |
| > 5000 | > 5000 |  |  | CCC1(c2cccc(C(F)(F)F)c2)C2=C(CC(C)(C)C2=O)Nc2n[nH]cc21 (stereo not drawn) [Compound 950273] |
|  |  | 100 to 1000 | ≤ 100 | CCC1(c2cccc(C(F)(F)F)c2)C2=C(CC3(CCNC3=O)CC2=O)Nc2n[nH]cc21 (stereo not drawn) [Compound 950324] |
|  |  | > 5000 | > 5000 | CC[C@]1(c2cccc(C(F)(F)F)c2)C2=C(C[C@@]3(CCN(C)C3=O)CC2=O)Nc2n[nH]cc21 [Compound 950325] |
|  |  | ≤ 100 | ≤ 100 | CCC1(c2cccc(C(F)(F)F)c2)C2=C(CC3(CCN(C)C3=O)CC2=O)Nc2n[nH]cc21 (stereo not drawn) [Compound 950329] |
|  |  | > 5000 | 100 to 1000 | CCC1(c2cccc(C(F)(F)F)c2)C2=C(CC3(CCN(C)C3=O)CC2=O)Nc2n[nH]cc21 (stereo not drawn) [Compound 950330] |
|  |  | > 5000 | 100 to 1000 | CCC1(c2cccc(C(F)(F)F)c2)C2=C(CC3(CCNC3=O)CC2=O)Nc2n[nH]cc21 (stereo not drawn) [Compound 950331] |
|  |  | > 5000 | > 5000 | CC[C@@]1(c2cccc(C(F)(F)F)c2)C2=C(C[C@]3(CCNC3=O)CC2=O)Nc2n[nH]cc21 [Compound 950332] |
|  |  | 100 to 1000 | ≤ 100 | CC[C@@]1(c2cccc(C(F)(F)F)c2)C2=C(C[C@@]3(CCNC3=O)CC2=O)Nc2n[nH]cc21 [Compound 950333] |
| 100 to 1000 | ≤ 100 |  |  | CCC1(c2cccc(C(F)(F)F)c2)C2=C(CCN(c3cn[nH]c3)C2=O)Nc2n[nH]cc21 (stereo not drawn) [Compound 950479] |
| 1000 to 5000 | 100 to 1000 |  |  | CCC1(c2cccc(C(F)(F)F)c2)C2=C(CCN(c3cc(C)n(C)n3)C2=O)Nc2n[nH]cc21 (stereo not drawn) [Compound 950608] |
| 1000 to 5000 | ≤ 100 |  |  | CCC1(c2cccc(C(F)(F)F)c2)C2=C(CCN(c3cnn(C)c3C)C2=O)Nc2n[nH]cc21 (stereo not drawn) [Compound 950612] |
| 100 to 1000 | ≤ 100 |  |  | CCC1(c2cccc(C(F)(F)F)c2)C2=C(CCN(c3cccs3)C2=O)Nc2n[nH]cc21 (stereo not drawn) [Compound 950614] |
| 100 to 1000 | ≤ 100 |  |  | CCC1(c2cccc(C(F)(F)F)c2)C2=C(CCN(c3ccsc3)C2=O)Nc2n[nH]cc21 (stereo not drawn) [Compound 950776] |
